# US20120053128A1, “Method of inhibiting angiogenesis” (XAVIER UNIVERSITY, priority 2010, published 2012)
# Like-named read-outs stand apart in the source and are kept apart here. Where no end group is shown, it is not given here.
# Assays:
# [1] = MDA-MB-231 cell viability (CellTiter 96 AQuous One); assay type: cell-based, human; details: human, MDA-MB-231 human breast cancer cells; MDA-MB-231 cells, incubated two days, apoEdp about 6 to about 300 μM; read-out: 50% cytotoxic dose
# Method: (§1) To determine whether apoEdp affects cell survival, cell viability of human umbilical vein endothelial cells (HUVECs) and MDA-MB-231 human breast cancer cells was determined by using CellTiter 96® AQuous One solution cell proliferation kit (Promega, Madison, Wis.).
# (§2) HUVECs were obtained from Lonza (Walkersville, Md.) and were maintained in endothelial cell basal medium (EBM-2) (Lonza, Walkersville, Md.) supplemented with 10% fetal bovine serum (FBS) and growth factors. (bullet kit, Lonza, Walkersville, Md.) HUVECs were used between passages 2-6. Human Breast Cancer cells MDA-MB-231 were obtained from the American Type Tissue Collection and cultured in Dulbecco's Modified Eagle's medium supplemented with 10% fetal bovine serum, 0.1 mg/mL streptomycin and 25 U/mL penicillin.
# (§3) The MDA-MB-231 cells were in 96-well plates at about 5,000 cells per well. The MDA-MB-231 cells were then allowed to adhere to the plate with apoEdp in various concentrations in the range of about 6 μM to about 300 μM. The cells were incubated for two days, and cell numbers were determined using the CellTiter 96® AQuous One Solution cell proliferation kit. (Promega, Madison, Wis.)
# [2] = system: MDA-MB-231 human breast cancer cells; experiment: as above; assay type: cell-based; details: MDA-MB-231 cells, apoEdp up to 300 μM
# Method: as §1, §2, §3
# [3] = system: VEGF-induced angiogenesis; experiment: Rabbit corneal micropocket assay of VEGF-induced angiogenesis; assay type: in vivo, New Zealand White Rabbits; details: rabbit eye, 1% apoEdp eye drops 50 μL topically five times per day for five days, versus saline drops
# Method: The effect of apoEdp on angiogenesis in vivo was observed by testing its inhibitory effect on VEGF-induced angiogenesis in a corneal micropocket assay of a rabbit eye model. A corneal micropocket was created with a modified von Graefe cataract knife in each eye of several 2-3 pound New Zealand White Rabbits. A micropellet of 500 μm by 500 μm was prepared which contained 0.4 g of Compritol 888 ATO (Gattefosse) combined with 0.1 g of Squalane oil (Sigma Aldrich) and 20 mg/mL L-α-Phosphatidylcholine. The 20 mg/mL L-α-Phosphatidylcholine contained either saline for the control subjects or 160 ng of VEGF for the test subjects. The right eye of each test subject was implanted with a VEGF-containing pellet and the left eye of each test subject was implanted with a saline-containing pellet. Each of the pellets was positioned about 2 mm from the corneal limbus. […] The area of neovascular response, vessel length and clock hours of new blood vessel formation of each group were all calculated according to the formula, Area (mm^2)=C/12×3.1416[r^2−(r−L)^2] where, C=the number of clock hours at the limbus involved in the neovascular response, L=the length of the longest neovascular pedicle from the limbus onto the anterior cornea, and r=the radius of the cornea.
# [4] = system: MDA-MB-231 human breast cancer cells xenograft; assay type: in vivo; details: nude mice, about 40 mg/kg/day intralesionally for three consecutive days, versus PBS
# Method: The effect of apoEdp on tumor growth in vivo was observed by testing its inhibitory effect on xenograft tumor growth post-injection in nude mice.
# The test subjects were female nu/nu mice, aged 8-12 weeks, weighing about 20 g. (Charles River Laboratories, Harlan, Indianapolis, Ind.) The mice were weighed, coded, and divided into experimental groups at random. The mice were subcutaneously injected with about 3×10^6 MDA-MB-231 human breast cancer cells in 100 μL PBS. The cells were injected into the right sides of the dorsal area of the test subjects. The tumor size was allowed to reach about 100 mm^3 which took about ten days.
# Following injection of the tumor cells, the subjects were given injections for three consecutive days. About 40 mg/kg/day of apoEdp was injected intralesionally into the test subjects, and about […] of sterile PBS was injected intralesionally into the control subjects.
# In order to evaluate tumor growth, tumor volume was determined every seven days by measuring the tumor with a digital caliper and calculating tumor volume. Volume was calculated using the formula, V=A×B^2×0.52, where A=longest diameter of the tumor, and B=the shortest diameter of the tumor.
# [5] = system: Flk-1; experiment: Western blot, VEGF-induced phosphorylation of Flk-1 in HUVECs; assay type: cell-based, human; details: apoEdp about 6 to about 50 μM for 1 h, VEGF 10 ng/mL ten minutes, concentration dependent
# Method: (§4) The mechanism by which apoEdp inhibits angiogenesis and tumor growth was evaluated using Western Blot Analysis.
# (§5) Confluent HUVECs were grown in EBM-2 containing 1% FBS for twenty-four hours. The medium was then replaced with 1% FBS media in the presence or absence of apoEdp in the range of about 6 μM to about 50 μM. The cells were allowed to grow for one hour; then VEGF was added at a concentration of 10 ng/mL. The cells were then incubated for ten minutes to detect the phosphorylated forms of angiogenic signaling molecules.
# (§6) The cells were lysed, quantified for protein concentration, and separated on 4% to 20% pre-cast SDS-PAGE gels. Western blots were then performed of the control cell lysates and the apoEdp treated cell lysates. The western blots were performed with antibodies against the phosphorylated and non-phosphorylated (control) forms of Flk-1, c-Src, FAK, Erk1/2, Akt and eNOS. (Santa Cruz Biotechnology, Santa Cruz, Calif.).
# [6] = system: c-Src; experiment: Western blot, VEGF-induced phosphorylation of c-Src in HUVECs; assay type: cell-based, human; details: apoEdp about 6 to about 50 μM for 1 h, VEGF 10 ng/mL ten minutes, concentration dependent
# Method: as §4, §5, §6
# [7] = system: Akt; experiment: Western blot, VEGF-induced phosphorylation of Akt in HUVECs; assay type: cell-based, human; details: apoEdp about 6 to about 50 μM for 1 h, VEGF 10 ng/mL ten minutes, concentration dependent
# Method: as §4, §5, §6
# [8] = system: eNOS; experiment: Western blot, VEGF-induced phosphorylation of eNOS in HUVECs; assay type: cell-based, human; details: apoEdp about 6 to about 50 μM for 1 h, VEGF 10 ng/mL ten minutes, concentration dependent
# Method: as §4, §5, §6
# [9] = system: FAK; experiment: Western blot, VEGF-induced phosphorylation of FAK in HUVECs; assay type: cell-based, human; details: apoEdp about 6 to about 50 μM for 1 h, VEGF 10 ng/mL ten minutes, concentration dependent
# Method: as §4, §5, §6
# [10] = system: Erk1/2; experiment: Western blot, VEGF-induced phosphorylation of Erk1/2 in HUVECs; assay type: cell-based, human; details: apoEdp about 6 to about 50 μM for 1 h, VEGF 10 ng/mL ten minutes, concentration dependent
# Method: as §4, §5, §6
# [11] = human, human umbilical vein endothelial cells (HUVECs)
# Method: The HUVECs, as described above, were seeded in 96-well plates at about 10,000 cells per well. The next day, the cells were starved for 18 hours in EBM-2+1% FBS without any growth supplement. The HUVECs were then incubated with apoEdp in various concentrations in the range of about 6 μM to about 300 μM. An hour later, 50 ng/mL of vascular endothelial growth factor (VEGF) was introduced. The cells were incubated for two days, and cell numbers were determined using the CellTiter96 AQuous One Solution cell proliferation kit. (Promega, Madison, Wis.)
sequence,measurement,setting,value
LRKLRKRLLLRKLRKRLL [apoEdp],CC50 at 48 h,[1],> 300 µM
same,effect on cell viability,[2],no effect on cell viability
same,VEGF-induced angiogenesis (area of neovascular response),[3],significantly inhibited
same,tumor growth (tumor volume),[4],significantly inhibited
same,VEGF-induced phosphorylation of Flk-1,[5],significantly inhibited
same,VEGF-induced phosphorylation of c-Src,[6],significantly inhibited
same,VEGF-induced phosphorylation of Akt,[7],significantly inhibited
same,VEGF-induced phosphorylation of eNOS,[8],significantly inhibited
same,VEGF-induced phosphorylation of FAK,[9],significantly inhibited
same,VEGF-induced phosphorylation of Erk1/2,[10],significantly inhibited
same,CC50 at 48 h,[11],~103 µM
